# Measured values published in patent publication US20260209305A1, “THERAPEUTIC EXPLOITATION OF STING CHANNEL ACTIVITY” (The Broad Institute Inc., priority 2022, published 2026).
# Legend:
# STING [1] = target: T1, STING (Homo sapiens, UniProt Q86WV6); experiment: STING-induced autophagy: LC3 lipidation, RFP-LC3 imaging in FIP200 KO 293T cells and western blot in BJ1 cells; assay type: cell-based; parameters: expressed in transfected cells; host or cells: FIP200 KO 293T cells, lentiviral transduction; conditions: 1 hour; for LC3 lipidation upon agonist treatment: 20 ug/ml cGAMP, 40 μM MSA2 or 1 μM diABZI
# T1 sequence (Q86WV6 whole entry): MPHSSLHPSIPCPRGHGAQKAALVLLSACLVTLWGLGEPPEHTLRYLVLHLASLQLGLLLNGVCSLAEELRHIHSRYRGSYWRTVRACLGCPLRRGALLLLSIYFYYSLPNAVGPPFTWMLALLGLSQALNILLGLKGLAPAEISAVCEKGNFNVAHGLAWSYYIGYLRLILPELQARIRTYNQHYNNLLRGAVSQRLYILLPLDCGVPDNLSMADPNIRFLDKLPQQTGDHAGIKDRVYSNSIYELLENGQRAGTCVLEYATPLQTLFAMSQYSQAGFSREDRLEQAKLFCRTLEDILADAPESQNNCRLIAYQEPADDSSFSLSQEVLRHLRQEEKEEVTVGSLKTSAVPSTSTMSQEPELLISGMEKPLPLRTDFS
# Procedure: Cells were then fixed with 2% Paraformaldehyde (Electron Microscopy Sciences) in PHEM buffer (Electron Microscopy Sciences) for 30 minutes at 37° C., washed three times with PBS and quenched with freshly prepared 0.1M Glycine for 10 minutes. Coverslips were then permeabilized and blocked with 1× perm/stain buffer (10% goat serum (Thermo Fisher) in PBS, 0.5% BSA (Seracare), 0.05% Saponin from quillaja barka (Sigma)) for 30 minutes. […] Coverslips were then washed 5 times, mounted with Fuoromont-G, with DAPI (Thermo Fisher) and dried at 37° C. for one hour. Images were acquired on Olympus. Images were acquired on an Olympus IX83 using an Olympus UApo 40× objective controlled by Fluoview software.
# Western Blotting: BJ1 cells were seeded at 0.15 million cells/well density in a 24 well plate the night before stimulation. […] Cells were then harvested and lysed in 100 ul of 1×SDS sample buffer (Boston Bio, #BP111NR).
# Cells were segmented by thresholding the DAPI signal to identify nuclei and expanding the resulting regions using the seeded watershed method. Cells were segmented based on background in the Lysosensor, LC3B-RFP, and NLRP3 mNeonGreen channels. For the live-cell imaging and NLRP3 stimulation experiments, background was subtracted using the rolling ball algorithm. Puncta or Golgi structures enhanced using a Laplacian of Gaussian filter with sigma=12 (live-cell), sigma=8 (NLRP3), or sigma=7 (LC3B).
# STING [2] = target: T1, STING; experiment: Organelle pH measurement (Lysosensor) after STING activation in BJ1 cells; assay type: cell-based; conditions: human fibroblasts (BJ1), 1 μM diABZI, 1 hr
# Procedure: Organelle pH Measurements and Image Acquisition: hTERT-immortalized BJ1 cells (ATCC CRL-2522) were plated in 24-well glass-bottom plates (Greiner Bio-One). After 24 hours, cells were stained for 30 minutes at 37° C. with 5 μM Lysosensor (Thermo Fisher Scientific cat #L7535), […] Hoechst (Thermo Fisher Scientific, cat. #62249), and 1 μM Bodipy TR Ceramide (Thermo Fisher Scientific cat #B34400) for Golgi labeling or 100 nM Lysotracker Deep Red (Thermo Fisher Scientific cat #L12492) for endolysosome labeling in Phenol-free DMEM medium with 10% FBS and 1% Pen-Strep. Cells were then washed five times with Phenol-free DMEM medium and stimulated with 1 μM DIABZI for 1 hr with or without the addition of 10 μM C53. […] An LED light engine (Lumencor CELESTA Light Engine) was used for fluorescence illumination and all hardware was controlled using NIS elements software. […]
# Given the necessity of both the STING transmembrane domain and its translocation for autophagy induction, it was investigated whether the entire STING protein could cause ion leakage by either inducing membrane damage resulting in a secondary ion imbalance or by directly acting as an ion channel. […] The possibility that STING directly behaves as a channel for proton release into the cytosol upon translocation to the Golgi was assessed, the Golgi being an acidic compartment (Linders et al. 2022). […]
# NLRP3 = experiment: NLRP3-mNeongreen reporter: NLRP3 puncta in 293T cells expressing STING-HA; assay type: cell-based, human; conditions: 1 μM diABZI, 1 hour
# NLRP3 inflammasome = experiment: Inflammasome activation and IL-1ß release in primary human monocytes; assay type: cell-based
# STING [3] = experiment: p-STING and LC3B lipidation immunoblot in 293T cells expressing WT STING, STING AQQA or TMEM192-STING-LBD; assay type: cell-based, human; conditions: 293T cells expressing the STING construct
# Procedure: Genes that are essential for mediating STING-induced autophagy were systematically identify, with a special interest in identifying potential transporters responsible for ion leakage. […] A genome-wide CRISPR fluorescence-activated cell sorting (FACS) screen was carried out using HEK293T cells expressing RFP-LC3 and STING-HA with FIP200 knocked out in order to reduce background signal from basal autophagy. Following transduction with the sgRNA library, cells were stimulated with diABZI to induce STING activation and STING-HA+ cells were sorted into LC3− and LC3+ bins (FIG. 1A) to specifically identify genes that altered CASM activation without affecting STING activation. […] The STING itself may have mediated Golgi/endosomes proton leakage critical for subsequent assembly of V-ATPase and recruitment of ATG16L1 to initiate CASM (Xu et al. 2019). In order to assess this, whether the STING ligand-binding domain (LBD), which has been proposed to recruit LC3 through its LR motifs (Gui et al. 2019; Liu et al. 2019), could induce autophagy upon translocation to Golgi/endosomes was first tested. Autophagy induction was tested in 293T cells by WT STING, a STING oligomerization-deficient mutant (A277Q/Q273A STING, termed AQQA), and an endolysosome-localized STING fusion protein (the endolysosomal protein TMEM192 fused with the STING LBD) upon agonist stimulation. […]
# STING [4] = experiment: RFP-LC3 induction and pSTING by FACS in HEK293T cells expressing STING WT or H50R; assay type: cell-based, human; conditions: mutant vs WT STING, FIP200 KO 293T cells, agonist stimulation
# Procedure: FACS based genome-wide CRISPR screen and mutagenesis screen: FIP200 KO 293T cells were generated by transfecting 293T cells with pXPR_023 (Addgene #52961), encoding Cas9 and an sgRNA against FIP200 and selecting cells with 2 μg/ml puromycin (Thermo Fisher Scientific #A1113803) for two days. FIP200 KO 293T cells were then transduced with pTRIP-PGK-Hygro-P2A-RFP-LC3, treated with 33 μg/ml hygromycin (Invivogen, #ant-hg-1) for 3 days, and then sorted to get a homogenous RFP+ population.
# Mutagenesis screen: RFP-LC3 FIP200 KO 293T cells were infected with saturated mutagenesis library lentivirus at MOI=0.2, and selected with 20 μg/ml blasticidin for 2 days. 150M transduced cells were treated with diABZI for 1.5 hr, and then permeabilized with 1× perm buffer (PBS with 0.05% saponin and 0.1% glycine) for 4 min. Permed cells are then washed with 1×PBS, and fix, perm, and stained using BD Cytofix/Cytoperm kit and anti-pSTING Alexa647 (CST, #43499) at 1:100 dilution.
# A sorting strategy similar to the genome-wide CRISPR screen was followed, sorting populations of LC3− and LC3+ HEK293T cells within the pSTING+ cell population (FIG. 3E), thus ensuring that the sorted cell mutants enabled expression of functional STING able to translocate to Golgi/endosomes where phosphorylation of STING occurs (Dobbs et al. 2015). […]
# Target sequence in this assay (Q86WV6 153-340 limits assumed): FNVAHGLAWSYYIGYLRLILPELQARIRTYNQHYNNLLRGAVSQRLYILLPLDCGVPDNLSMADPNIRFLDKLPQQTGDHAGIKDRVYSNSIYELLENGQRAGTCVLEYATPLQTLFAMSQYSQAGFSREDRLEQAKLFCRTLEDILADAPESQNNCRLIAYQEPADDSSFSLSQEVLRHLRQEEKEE
molecule,measurement,setting,value
COc1cc2cc(C(=O)CCC(=O)O)sc2cc1OC [MSA2],LC3 lipidation upon agonist treatment,STING [1],LC3 lipidation was induced
CO[C@@H]1C[C@@H](C[C@H]2CC[C@H](C)[C@H]([C@@H](C)C(=O)O)O2)O[C@]2(O[C@](C)([C@H]3CC[C@@](C)([C@@H]4O[C@@H]([C@H]5O[C@@](O)(CO)[C@H](C)C[C@@H]5C)C[C@@H]4C)O3)C[C@H]2C)[C@@H]1C [Nigericin],LC3 lipidation by independent ionophore stimulus,"STING [1]; BJ1 cells, 2 μM Nigericin",induction of LC3 lipidation
CCn1nc(C)cc1C(=O)Nc1nc2cc(C(N)=O)cc(OC)c2n1C/C=C/Cn1c(NC(=O)c2cc(C)nn2CC)nc2cc(C(N)=O)cc(OCCCN3CCOCC3)c21 [diABZI],fluorescence within the endolysosomal compartment,STING [2],only modestly altered
same,pH within the Golgi apparatus (decreased fluorescence of Lysosensor Green dye),STING [2],significant increase in pH
same,NLRP3 translocation upon stimulation,NLRP3,NLRP3 translocated from the cytoplasm to perinuclear vesicles
same,IL-1ß release upon STING agonist stimulation,NLRP3 inflammasome,induced
same,LC3 lipidation upon agonist treatment,STING [1],LC3 lipidation was induced
AQQA: STING oligomerization-deficient mutant (A277Q/Q273A STING),autophagy induction (LC3B lipidation) upon agonist stimulation,STING [3],impaired LC3B lipidation
"STING H50R: human STING polypeptide with H50R substitution in TM2, inside the pore area",LC3 induction within pSTING+ cells (STING-induced autophagy),STING [4],reduced
same,LC3 induction within pSTING+ cells (STING-induced autophagy),STING [4]; listed as H50R,strongly inhibit
cyclic GMP-AMP [cGAMP],IL-1ß release upon STING agonist stimulation,NLRP3 inflammasome,induced
